According to paper PMC5431435, “A short artificial antimicrobial peptide shows potential to prevent or treat bone infections” (Scientific Reports, 2017):
≈ marks a conversion by molar mass, not a printed value.

Key:
S. aureus biofilm = assay: Biofilm assay by microcalorimetry and plating (MBCB); assay type: cell-based, Staphylococcus aureus; conditions: 128 µg/ml daptomycin, calorimetry and plating (data not shown)
Protocol: To confirm MIC of the AMP2 by isothermal microcalorimetry, three different bouillons were tested: Mueller-Hinton II bouillon with adjusted cations (MH^++; BBL, Germany), Mueller-Hinton bouillon with low cations (MH^+; with 3–4 mg/l Ca^2+ and 5–6 mg/l Mg^2+; Oxoid, Germany) and Mueller-Hinton bouillon without cations (MH^−; Merck, Germany). AMP2 concentrations of 2–33 µg/ml were tested with the three different bouillons and gentamicin concentrations of 0.125–2 µg/ml were analyzed with MH^++. Staphylococcus aureus (ATCC 29213, 300 µl with 10^5 cfu/ml) was added to each microcalorimetry glass ampoule (Waters; Germany) containing 3.7 ml of AMP or gentamicin solution of (n = 3). The ampoules were hermetically sealed and heat flow (W) was measured for 24 hours in the calorimeter TAM III (TA Instruments, USA). For the biofilm assay, S. aureus biofilm was grown on glass beads (4 mm diameter, 60 µm pores; ROBU Glasfilter-Geräte, Germany) in MH^++ bouillon at 37 °C in an aerobe atmosphere for 24 hours. After washing with sodium chloride, beads were incubated with AMP2 (133, 267, 533 µg/ml) or daptomycin (128 µg/ml) in MH^++ bouillon for another 24 hours at 37 °C. Beads were washed again and added to the glass ampoule with fresh MH^++ bouillon. The total heat (J) was measured for 48 hours in the calorimeter. A concentration, which inhibits minimum 90% of biofilm, can be defined as the minimal biofilm inhibitory concentration (MICB). All samples were tested with n = 6.
Furthermore, the MBC for biofilms (MBCB) where 99.9% of all bacteria are killed was determined. After measurement, bouillon and glass beads were plated on CA plates and incubated for 24 hours at 37 °C in an aerobe atmosphere.

[1] = system: human primary osteoblast-like cells; assay type: cell-based
Protocol: (§1) (1) For the cytotoxicity test, 1 × 10^4 cells were seeded in 48-well plates with cultivation medium (CM) DMEM/Ham’s F-12 (D/H; Biochrom, Germany) + 10% fetal calf serum (FCS; Biochrom, Germany) + 1% penicillin/streptomycin (P/S; Biochrom, Germany) + 0.05 mM L-ascorbic-2 phosphate (L-Asc) + 0.05 mM β-glycerolphosphate (β-Glyc) and incubated overnight at 37 °C, 5% CO2 and 95% relative humidity. After adding the AMPs (3–542 µg/ml - depending on the AMP) or gentamicin (8–1024 µg/ml) in CM with 1% FCS, without Pen/Strep, cells were cultured for three days. Cell viability was determined with an AlamarBlue® assay before adding the AMPs and after 3 days. Alkaline phosphatase activity was measured on day 3.
Alamar Blue® (Biozol, Germany) was done according to the manufacturer’s instruction.

[2] = system: human primary osteoblast-like cells; assay type: cell-based; remark: listed apart in the source
Protocol: as §1

P. aeruginosa ATCC 27853 = assay: Broth microdilution MIC and plating MBC; assay type: cell-based; conditions: Pseudomonas aeruginosa; for MIC: 37 °C, 18–24 h
Protocol: (§2) To determine the minimal inhibitory concentration (MIC), classical broth microdilution method was performed after protocols from Wiegand et al.[15]. The influence of cations was analyzed by using cation adjusted Mueller-Hinton bouillon II with 20–25 mg/l Ca^2+ and 10–12.5 mg/l Mg^2+ (MH^++; BBL, Germany) or Mueller-Hinton bouillon without cations (MH^−; Merck, Germany) (n = 4–8).
(§3) The maximal concentration of the AMPs was between 200–271 µg/ml. The differences in the AMP concentration are due to the purity of the peptides (absorption coefficient from 5.19 to 9.36).

S. epidermidis PIA 8400 = assay: Broth microdilution MIC and plating MBC; assay type: cell-based; conditions: Staphylococcus epidermidis; for MIC: 1–5 × 10^5 cfu/ml, 37 °C, 18–24 h; for MBC: plated on Columbia-agar overnight 37 °C
Protocol: as §2, §3

S. aureus ATCC 29213 = assay: Broth microdilution MIC and plating MBC; assay type: cell-based; conditions: Staphylococcus aureus
Protocol: as §2, §3

E. faecalis ATCC 29212 = assay: Broth microdilution MIC and plating MBC; assay type: cell-based; conditions: Enterococcus faecalis, ATCC29212, MH++ (with cations), n = 4–8
Protocol: as §2, §3

E. coli ATCC 25922 = assay: Broth microdilution MIC and plating MBC; assay type: cell-based; conditions: Escherichia coli, ATCC25922
Protocol: as §2, §3

planktonic S. aureus = assay: MIC by isothermal microcalorimetry, planktonic bacteria; assay type: cell-based, Staphylococcus aureus; conditions: Staphylococcus aureus; MH++, heat flow 24 hours, n = 3; read-out: MIC (calorimetry)
Protocol: Mueller-Hinton II bouillon with adjusted cations (MH^++; BBL, Germany), Mueller-Hinton bouillon with low cations (MH^+; with 3-4 mg/l Ca^2+ and 5-6 mg/l Mg^2+; Oxoid, Germany) and Mueller-Hinton bouillon without cations (MH^-; Merck, Germany). AMP2 concentrations of 2-33 μg/ml were tested with the three different bouillons and gentamicin concentrations of 0.125-2 μg/ml were analyzed with MH^++. Staphylococcus aureus (ATCC 29213, 300 μl with 10^5 cfu/ml) was added to each microcalorimetry glass ampoule (Waters; […] The ampoules were hermetically sealed and heat flow (W) was measured for 24 hours in the calorimeter TAM III (TA Instruments, USA). […] ROBU […], Germany) in MH^++ bouillon at 37 °C in an aerobe atmosphere for 24 hours. […] Beads were washed again and added to the glass ampoule with fresh MH^++ bouillon. The total heat (J) was measured for 48 hours in the calorimeter. A concentration, which inhibits minimum 90% of biofilm, can be defined as the minimal biofilm inhibitory concentration (MICB). All samples were tested with n = 6.

S. aureus (ATCC 29213) = assay: Zone of inhibition test of PDLLA-coated titanium wires; assay type: cell-based, Staphylococcus aureus; conditions: 10% w/w in poly(D,L-lactide) coating, n = 3, mean with standard deviation; day not given
Protocol: Titanium wires (diameter 1 mm, Synthes, USA) were coated with Poly(D,L-lactide) (PDLLA, Boehringer Ingelheim, Germany) and incorporated AMP2 at three different concentrations: 10% w/w, 20% w/w, or 30% w/w. Gentamicin/PDLLA (10% w/w) or PDLLA coated wires served as control. Briefly, 100 mg PDLLA was solved in 1.5 ml ethyl acetate and the wires were coated in a dipping procedure. Details of the coating were described previously. Three nails of each group were placed on Mueller-Hinton agar plates plated with S. aureus (ATCC 29213) and the zone of inhibition (ZOI) was quantified after 1, 3, 7, and 14 days using ImageJ software.

S. aureus MRSA = assay: Broth microdilution MIC and plating MBC, clinical isolate; assay type: cell-based; conditions: Staphylococcus aureus, MH++ (with cations), n = 4–8
Description: (§4) The strains Escherichia coli (ATCC 25922), Enterococcus faecalis (ATCC 29212), Pseudomonas aeruginosa (ATCC 27853), Staphylococcus aureus (ATCC 29213) were used. In addition, following clinical isolates were used: Staphylococcus epidermidis (PIA 8400, isolated from blood cultures[48]), and two Staphylococcus aureus (MRSA and MSSA, both isolated from osteosyntheses material, kindly provided by Andrej Trampuz, Charité).
as §2, §3

S. aureus MSSA = assay: as above; assay type: cell-based; conditions: Staphylococcus aureus
Description: as §4, §2, §3

[3] = system: S. aureus internalized in human primary osteoblast-like cells; assay: Effect against internalized bacteria; assay type: cell-based, Staphylococcus aureus; conditions: 7.5 μg/ml, n = 7
Protocol: Human primary osteoblast-like cells were cultivated in 24-well plates with cultivation medium until they reached a minimum confluence of 80%. For the experiment, cells were washed and S. aureus (ATCC 29213) in cultivation medium added (~2 × 10^7 cfu/ml). After an incubation of 45 minutes, extracellular bacteria were killed using 200 µg/ml gentamicin dissolved in CM with 10% FCS, without P/S. After 1 hour incubation, gentamicin solution was removed, cells washed three times and AMP2 (33 and 67 µg/ml) in CM with only 1% FCS + no P/S added for 4 and 24 hours. As reference, 7.5 µg/ml rifampicin was used. All incubation steps were done in an incubator with 37 °C, 95% humidity and 5% CO2. For determination of the internalized bacteria, cells were lysed and the supernatant plated on CA plates. Experiment were done with n = 7.

[4] = ATCC27853, MH++ (with cations), n = 4–8
[5] = ATCC27853, MH− (without cations), n = 4

Question: Which biofilm growth (S. aureus biofilm) does the source give for daptomycin [reference compound] here?
Answer: completely inhibited

Question: With “WRKFWKYLK [AMP5, 9mer cationic antimicrobial peptide … from an optimized peptide library]” as the compound, how does the “concentrations with no negative effect on cell viability” value [1] read?
Answer: < 63 µg/mL

Question: And the “concentrations with significant inhibition of viability compared to the control group” value [1]?
Answer: ≥ 63 µg/mL

Question: What about the “concentrations with significant inhibition of alkaline phosphatase activity compared to the control group” value [2] of the same compound?
Answer: ≥ 63 µg/mL

Question: Which results are given for “RTKKWIVWI [AMP3, 9mer cationic antimicrobial peptide … from an optimized peptide library]”?
Answer: concentrations with no negative effect on cell viability [1]: < 68 µg/mL; concentrations with significant inhibition of viability compared to the control group [1]: ≥ 68 µg/mL

Question: Which “concentrations with no negative effect on cell viability” value [1] does the source give for “RRRIKIRWY [AMP4, 9mer cationic antimicrobial peptide … from an optimized peptide library]” here?
Answer: < 251 µg/mL

Question: And the “concentrations with significant inhibition of viability compared to the control group” value [1]?
Answer: ≥ 251 µg/mL

Question: Which results are given for “YRLRVKWKW [AMP1, 9mer cationic antimicrobial peptide … from an optimized peptide library]”?
Answer: concentrations with no negative effect on cell viability [1]: < 100 µg/mL; concentrations with significant inhibition of viability compared to the control group [1]: ≥ 100 µg/mL; concentrations with significant inhibition of alkaline phosphatase activity compared to the control group [2]: all concentrations

Question: Which MIC (P. aeruginosa ATCC 27853; [4]) does the source give for `CNC(C)C1CCC(N)C(OC2C(N)CC(N)C(OC3OCC(C)(O)C(NC)C3O)C2O)O1` (centres unmarked) [gentamicin] here?
Answer: 1 µg/mL (≈ 2.09 µM)

Question: What about the MBC (P. aeruginosa ATCC 27853; [4]) of the same compound?
Answer: 4 µg/mL (≈ 8.38 µM)

Question: What about the MIC (P. aeruginosa ATCC 27853; [5]) of the same compound?
Answer: 0.25 µg/mL (≈ 0.523 µM)

Question: What about the MBC (P. aeruginosa ATCC 27853; [5]) of the same compound?
Answer: 1 µg/mL (≈ 2.09 µM)

Question: What about the MIC (S. epidermidis PIA 8400; PIA8400, MH++ (cation adjusted Mueller-Hinton bouillon II), n = 4–8) of the same compound?
Answer: 0.25 µg/mL (≈ 0.523 µM)

Question: What about the MBC (S. epidermidis PIA 8400; PIA8400, MH++ (with cations), n = 4–8) of the same compound?
Answer: 1 µg/mL (≈ 2.09 µM)

Question: What about the MIC (S. epidermidis PIA 8400; PIA8400, MH− (Mueller-Hinton bouillon without cations), n = 4) of the same compound?
Answer: 0.125 µg/mL (≈ 0.262 µM)

Question: And the MBC (S. epidermidis PIA 8400; PIA8400, MH− (without cations), n = 4)?
Answer: 0.25 µg/mL (≈ 0.523 µM)

Question: What about the MBC (S. aureus ATCC 29213; ATCC29213, MH++ (with cations), n = 4–8) of the same compound?
Answer: 0.5 µg/mL (≈ 1.05 µM)

Question: And the MBC (S. aureus ATCC 29213; ATCC29213, MH− (without cations), n = 4)?
Answer: 1 µg/mL (≈ 2.09 µM)

Question: What about the MIC (S. aureus ATCC 29213; ATCC29213, MH++ (with cations), 37 °C, 18–24 h, n = 4–8) of the same compound?
Answer: 0.5 µg/mL (≈ 1.05 µM)

Question: And the MIC (E. faecalis ATCC 29212; 37 °C, 5% CO2, 18–24 h)?
Answer: 16 µg/mL (≈ 33.5 µM)

Question: And the MBC (E. faecalis ATCC 29212)?
Answer: 32 µg/mL (≈ 67 µM)

Question: And the MBC (E. coli ATCC 25922; MH++ (with cations), n = 4–8)?
Answer: 2 µg/mL (≈ 4.19 µM)

Question: What about the MIC (E. coli ATCC 25922; MH− (without cations), 37 °C, 18–24 h, n = 4) of the same compound?
Answer: 1 µg/mL (≈ 2.09 µM)

Question: And the MIC (planktonic S. aureus)?
Answer: 1 µg/mL (≈ 2.09 µM)

Question: What about the ZOI (S. aureus (ATCC 29213)) of the same compound?
Answer: 10.8 +/- 0.6 cm²

Question: What about the MIC (S. aureus MRSA) of the same compound?
Answer: > 32 µg/mL

Question: What about the MBC (S. aureus MSSA; MH++ (with cations), n = 4–8) of the same compound?
Answer: 0.125 µg/mL (≈ 0.262 µM)

Question: And the MIC (S. aureus MSSA; MH++ (with cations), n = 4–8)?
Answer: 0.125 µg/mL (≈ 0.262 µM)

Question: And the MBC (S. aureus MSSA; MH− (without cations), n = 4)?
Answer: 1 µg/mL (≈ 2.09 µM)

Question: What about the MIC (S. aureus MSSA; MH− (without cations), n = 4) of the same compound?
Answer: 0.25 µg/mL (≈ 0.523 µM)

Question: Which “internalized bacteria compared to 0 μg/ml AMP [= 100%]” value ([3]; 4 h) does the source give for `CO[C@H]1/C=C/O[C@@]2(C)Oc3c(C)c(O)c4c(O)c(c(/C=N/N5CCN(C)CC5)c(O)c4c3C2=O)NC(=O)/C(C)=C\C=C\[C@H](C)[C@H](O)[C@@H](C)[C@@H](O)[C@@H](C)[C@H](OC(C)=O)[C@@H]1C` [rifampicin, reference compound] here?
Answer: 15%

Question: And the “internalized bacteria compared to 0 μg/ml AMP [= 100%]” value ([3]; 24 h)?
Answer: 0.0006%
